Laboratory results reported in ChEMBL document CHEMBL1201862, “PubChem BioAssay data set” (2004).
Several values for one entry are separate records, joined by “and”; a condition that tells them apart may be missing. Identical values can stand only once.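 Dose response: 5 concentrations. Exposure: 48 h. Format: 96-well plates. Endpoint: linear interpolation; highest concentration if not reached. Abbreviation: GI50, concentration required for 50% inhibition of growth.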 Activity calls are given as the source filed them. Rule as the data show it: active = GI50 up to about 1.1 µM and inactive = higher.

Experiments:
Assay in all cases: NCI anticancer screen, dose series, 48 h
OVCAR-4 = test system: OVCAR-4
SW-620 = test system: SW-620
NCI-H522 = test system: NCI-H522
CCRF-CEM = test system: CCRF-CEM
OVCAR-8 = test system: OVCAR-8
SNB-19 = test system: SNB-19
COLO 205 = test system: COLO 205
SK-OV-3 = test system: SK-OV-3
UO-31 = test system: UO-31
HL-60 = test system: HL-60
T47D = test system: T47D
RXF 393 = test system: RXF 393
SN12C = test system: SN12C
EKVX = test system: EKVX
NCI-H23 = test system: NCI-H23
MDA-N = test system: MDA-N
HOP-92 = test system: HOP-92

| SMILES | GI50 (OVCAR-4) | GI50 (SW-620) | GI50 (NCI-H522) | GI50 (CCRF-CEM) | GI50 (OVCAR-8) | GI50 (SNB-19) | GI50 (COLO 205) | GI50 (SK-OV-3) | GI50 (UO-31) | GI50 (HL-60) | GI50 (T47D) | GI50 (RXF 393) | GI50 (SN12C) | GI50 (EKVX) | GI50 (NCI-H23) | GI50 (MDA-N) | GI50 (HOP-92) |
| --- | --- | --- | --- | --- | --- | --- | --- | --- | --- | --- | --- | --- | --- | --- | --- | --- | --- |
| COc1cc([N+](=O)[O-])cc2c1NC(=O)C2(C)SC (stereo not given) | 90.2 µM (inactive) | 69 µM (inactive) | > 100 µM (inactive) | 40.9 µM (inactive) | > 100 µM (inactive) | > 100 µM (inactive) | > 100 µM (inactive) | 25.4 µM (inactive) | > 100 µM (inactive) | 18.3 µM (inactive) | 66.8 µM (inactive) | 86.7 µM (inactive) | 58.3 µM (inactive) | > 100 µM (inactive) | > 100 µM (inactive) | 51.8 µM (inactive) |  |
| OCCOCn1nncc1Cn1ncc2c(O)ncnc21 | > 100 µM (inactive) | 31.8 µM (inactive) | 60.8 µM (inactive) |  | > 100 µM (inactive) | > 100 µM (inactive) | 97.7 µM (inactive) | 71.6 µM (inactive) | > 100 µM (inactive) | 23.9 µM (inactive) | > 100 µM (inactive) | > 100 µM (inactive) | > 100 µM (inactive) | > 100 µM (inactive) | > 100 µM (inactive) |  | > 100 µM (inactive) |
| COc1cc2c(/C=C3/C(=O)N(C)c4ccc(O)cc43)c(Cl)[nH]c2cc1C | 1.8 µM (inactive) | 0.361 µM (active) | 0.404 µM (active) | 0.284 µM (active) | 0.597 µM (active) | 0.456 µM (active) | 0.414 µM (active) | 0.326 µM (active) | 1.64 µM (inactive) | 0.281 µM (active) | 3.41 µM (inactive) | 0.475 µM (active) | 0.776 µM (active) | 1.57 µM (inactive) | 0.329 µM (active) |  | 17.2 µM (inactive) |
| CC(Br)C(=O)NN1C2=C(Nc3ccccc31)c1cccc3cccc2c13 (stereo not given) |  | > 100 µM (inactive) | 92 µM (inactive) | 61.4 µM (inactive) | 55.8 µM (inactive) | > 100 µM (inactive) | 75.5 µM (inactive) |  | > 100 µM (inactive) | 57.5 µM (inactive) | 2.29 µM (inactive) | > 100 µM (inactive) | > 100 µM (inactive) | > 100 µM (inactive) | > 100 µM (inactive) | 90.6 µM (inactive) |  |
| Cc1nc2ccc(F)cc2c(Cl)c1CCCl | 83.8 µM (inactive) | 39.5 µM (inactive) | 31.5 µM (inactive) | 18.6 µM (inactive) | 49.3 µM (inactive) | 36.4 µM (inactive) | 20 µM (inactive) |  | 73.1 µM (inactive) | 16.1 µM (inactive) | 38.6 µM (inactive) | 21.7 µM (inactive) |  | 13.9 µM (inactive) | 42.3 µM (inactive) |  | 36 µM (inactive) |
| N=C1N(S(=O)(=O)c2ccccc2)[C@@H](Cc2ccccc2)[C@H](c2ccccc2)C1(c1ccccc1)c1ccccc1 | > 100 µM (inactive) | > 100 µM (inactive) | 39.5 µM (inactive) | 27.2 µM (inactive) | 41 µM (inactive) | > 100 µM (inactive) | 80.7 µM (inactive) | > 100 µM (inactive) | 8.55 µM (inactive) | 4.12 µM (inactive) |  | 63.2 µM (inactive) | > 100 µM (inactive) | 37.2 µM (inactive) | 41.4 µM (inactive) | > 100 µM (inactive) |  |
| CC(C)(CN1CCCCC1)C(=O)CC(SCCS(=O)(=O)O)c1ccc(Cl)c(Cl)c1 (stereo not given) | 3.52 µM (inactive) | 2.22 µM (inactive) | 3.19 µM (inactive) | 2.07 µM (inactive) | 2.75 µM (inactive) | 10.4 µM (inactive) | 2.58 µM (inactive) | 29.7 µM (inactive) | 4.91 µM (inactive) | 3.46 µM (inactive) |  | 3.16 µM (inactive) | 3.46 µM (inactive) | 6.59 µM (inactive) | 3.72 µM (inactive) | 3.09 µM (inactive) | 1.76 µM (inactive) |
| CC1(C)C(=O)N(O)C(C)(C)N1N=O | > 10 µM (inactive) | > 10 µM (inactive) | > 10 µM (inactive) | > 10 µM (inactive) | > 10 µM (inactive) | > 10 µM (inactive) | > 10 µM (inactive) |  | > 10 µM (inactive) | > 10 µM (inactive) | > 10 µM (inactive) | > 10 µM (inactive) | > 10 µM (inactive) | > 10 µM (inactive) | > 10 µM (inactive) |  | > 10 µM (inactive) |
| NC1CC(=O)c2c1sc(Cl)c2Cl (stereo not given) |  | > 100 µM (inactive) |  | > 100 µM (inactive) | > 100 µM (inactive) | > 100 µM (inactive) | > 100 µM (inactive) | > 100 µM (inactive) | > 100 µM (inactive) | > 100 µM (inactive) | > 100 µM (inactive) | > 100 µM (inactive) | > 100 µM (inactive) | > 100 µM (inactive) |  | > 100 µM (inactive) |  |
| O=C1c2ccccc2-c2nc(-c3cccs3)cc3c2c1nc1ccccc13 | 56 µM (inactive) | 13.8 µM (inactive) | 12.7 µM (inactive) | 22.3 µM (inactive) | 41.8 µM (inactive) | 35.9 µM (inactive) | 13.2 µM (inactive) | > 100 µM (inactive) | 22.7 µM (inactive) | 5.42 µM (inactive) |  |  | > 100 µM (inactive) | 98.2 µM (inactive) | 11.9 µM (inactive) | 6.97 µM (inactive) | > 100 µM (inactive) |
| NC(CC(O)(c1ccccc1)c1ccccc1)c1ccccc1S (stereo not given) | 15.9 µM (inactive) | 16.7 µM (inactive) | 16.6 µM (inactive) | 13 µM (inactive) | > 10 µM (inactive) | 16.4 µM (inactive) | 15.4 µM (inactive) | 18.7 µM (inactive) | 11.4 µM (inactive) | 15 µM (inactive) | 16.8 µM (inactive) | 17 µM (inactive) | 18.8 µM (inactive) | 7.94 µM (inactive) | 18.5 µM (inactive) | 15.6 µM (inactive) |  |
| CC1=CC(=O)CC2(C)CCC(C(C)CC(=O)CC(C)C)CC12OO (stereo not given) | 27.7 µM (inactive) and 16 µM (inactive) | 19 µM (inactive) and 17.3 µM (inactive) |  | 20.7 µM (inactive) and 19.6 µM (inactive) | 19.2 µM (inactive) and 27.7 µM (inactive) | > 100 µM (inactive) and 95.5 µM (inactive) | 18.8 µM (inactive) and 14.3 µM (inactive) |  | 19.9 µM (inactive) and 16.2 µM (inactive) | 1.83 µM (inactive) and 1.87 µM (inactive) |  |  | 17.6 µM (inactive) and 18.7 µM (inactive) | 17.9 µM (inactive) and 19.9 µM (inactive) | 16.5 µM (inactive) and 19.9 µM (inactive) | 18.8 µM (inactive) and 18.1 µM (inactive) | 15.9 µM (inactive) and 18 µM (inactive) |
| Cc1ccc(C(C2C(=O)N(C)C(=O)N(C)C2=O)C(F)(F)C(=O)N(C)C)cc1 (stereo not given) | > 100 µM (inactive) | > 100 µM (inactive) |  | > 100 µM (inactive) | > 100 µM (inactive) | > 100 µM (inactive) | > 100 µM (inactive) | > 100 µM (inactive) | > 100 µM (inactive) |  | > 100 µM (inactive) | > 100 µM (inactive) |  | > 100 µM (inactive) | > 100 µM (inactive) |  | > 100 µM (inactive) |
| COC(=O)[C@@](C)(COC(=O)C(C)(C)C)NC(=O)OC(C)(C)C | > 100 µM (inactive) | > 100 µM (inactive) | > 100 µM (inactive) | > 100 µM (inactive) | > 100 µM (inactive) | > 100 µM (inactive) | > 100 µM (inactive) | > 100 µM (inactive) | > 100 µM (inactive) |  | > 100 µM (inactive) | > 100 µM (inactive) | > 100 µM (inactive) | > 100 µM (inactive) | > 100 µM (inactive) | > 100 µM (inactive) |  |
| COc1cccc(-c2cccc(SC)n2)n1 | 36.2 µM (inactive) | 32 µM (inactive) |  | 18.2 µM (inactive) | 35.6 µM (inactive) | 40.7 µM (inactive) | 19.1 µM (inactive) | 56.5 µM (inactive) | 30.5 µM (inactive) | 12.1 µM (inactive) | 18.2 µM (inactive) | 18.7 µM (inactive) | 36.8 µM (inactive) | 17.7 µM (inactive) | 23.8 µM (inactive) | 29.6 µM (inactive) | 19.5 µM (inactive) |
| CC1(C)CN(CC(=O)O)CC(Cc2ccc(OCC(=O)O)cc2)N(CC(=O)O)CC(C)(C)SS1 (stereo not given) | > 100 µM (inactive) | > 100 µM (inactive) | > 100 µM (inactive) |  | > 100 µM (inactive) | > 100 µM (inactive) | > 100 µM (inactive) | > 100 µM (inactive) | > 100 µM (inactive) |  |  | > 100 µM (inactive) | > 100 µM (inactive) | > 100 µM (inactive) | > 100 µM (inactive) | > 100 µM (inactive) | > 100 µM (inactive) |
| CC(C)(C)OC(=O)N/N=C(/N)Cc1ccc(Cl)cc1 | > 100 µM (inactive) | > 100 µM (inactive) | > 100 µM (inactive) | > 100 µM (inactive) | > 100 µM (inactive) | > 100 µM (inactive) | > 100 µM (inactive) | > 100 µM (inactive) | > 100 µM (inactive) |  | > 100 µM (inactive) | > 100 µM (inactive) | > 100 µM (inactive) | > 100 µM (inactive) |  | > 100 µM (inactive) |  |
| O=C(Sc1n[nH]c(=O)[nH]c1=O)c1cccc2nc3ccccc3nc12 | 76.9 µM (inactive) | 41.2 µM (inactive) |  | > 100 µM (inactive) | > 100 µM (inactive) | > 100 µM (inactive) | 2.44 µM (inactive) | > 100 µM (inactive) |  | > 100 µM (inactive) | > 100 µM (inactive) | > 100 µM (inactive) | 34.3 µM (inactive) | > 100 µM (inactive) | 3.78 µM (inactive) | 11.8 µM (inactive) | > 100 µM (inactive) |
